Literature values as cited in US7803402B2, “Pharmaceutical preparations” (priority 2002, dated 2010).

Columns and labels:
[1] = cefixime in the circulation
[2] = in vivo

## C=CC1=C(C(=O)O)N2C(=O)[C@@H](NC(=O)/C(=N\OCC(=O)O)c3csc(N)n3)[C@H]2SC1 [Cefixime]
[1]
  bound to plasma proteins: About 65%
[2]
  eliminated by nonrenal mechanisms: Up to 60%
  placental transfer: crosses the placenta
  removal by dialysis: not substantially removed
Dehydrated alcohol
  solubility in dehydrated alcohol: sparingly soluble
Ethyl acetate
  solubility in ethyl acetate: practically insoluble
Methyl alcohol
  solubility in methyl alcohol: freely soluble
water
  solubility in water: slightly soluble
